Read-outs that look alike come from different tables or passages of the source.
Columns and labels:
Ctenocephalides felis [1] = test: Topical treatment in-vivo test with cat flea on rats; settings: topical spot-on, 10 mg/kg
Protocol: Topical Treatment In-Vivo Test with American Dog Tick Nymph and Cat Flea on Rats
Type of study and overall study design: The method is a randomized non-blinded efficacy study in accordance with European animal welfare requirements. Rats (Rattus norvegicus) were randomized based on pre-treatment flea counts. The efficacy of treatment was determined by comparison of the flea and tick counts of different treatment groups versus the placebo-treated control group. The experimental unit was the individual study animal.
Method and route of administration: The compound was applied in a suitable solvent and carrier (more specifically, added to the following mixture: 33.3% by weight propylene carbonate, […] N-methylpyrrolidone, 0.1% by weight BHA, 0.05% by weight BHT) considering the individual body weight as topical spot-on between the shoulder blades directly onto the skin.
(§1) Experimental infestation: On the day of treatment and weekly thereafter, 30 ticks (D. variabilis nymphs) were released onto the back of each rat, and 30 fleas (C. felis) were released onto the back of each rat 24 h later.
(§2) Tick and Flea counting: Rats were thoroughly examined and ticks and fleas were manually removed 48 h (+4 h) after tick infestation and 24 h after flea infestation. Live fleas and live attached engorged ticks were counted. In non-evident cases, engorgement status was evaluated by squeezing the tick on a filter paper to find traces of blood as sign for engorgement.

Dermacentor variabilis = test: Systemic treatment in-vivo test with American dog tick nymph on rats; settings: intraperitoneal injection
Protocol: (§3) Systemic Treatment In-Vivo Test with American Dog Tick Nymph and Cat Flea on Rats
(§4) Type of study and overall study design: The method is a randomized non-blinded efficacy study in accordance with European animal welfare requirements. Rats (Rattus norvegicus) were randomized based on pre-treatment flea counts. The efficacy of treatment was determined by comparison of the flea and tick counts of different treatment groups versus the placebo-treated control group. The experimental unit was the individual study animal. Method and route of administration: The compound was applied in a suitable solvent and carrier (more specifically, added to glycerol formal; in case of poorly soluble compounds, a solvent mixture with up to 25% by volume of N-methyl pyrrolidone may be used.) considering the individual body weight as an intraperitoneal injection.
as §1
as §2, with “(±4” for “(+4”

Ctenocephalides felis [2] = test: Systemic treatment in-vivo test with cat flea on rats; settings: intraperitoneal injection; for inhibition in vivo at 10 mg/kg: Ctenocephalides felis, ip
Protocol: as §3, §4, §1
as §2, with “(±4” for “(+4”

Ctenocephalides felis [3] = test: In vitro contact test with fleas; settings: read-out: insecticidal activity
Summary of the method: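 Adult male and female cat fleas (5-10 per tube) placed in glass tubes coated with compound from acetone solution (900 ppm gives 5 μg/cm^2), kept at room temperature and ambient humidity. After 48 h, motionless or uncoordinated fleas scored dead or moribund; activity expressed as % dead or moribund.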

Rhipicephalus sanguineus = test: In vitro contact test with adult hard ticks (Rhipicephalus sanguineus); settings: read-out: acaricidal activity
Summary of the method: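 Adult R. sanguineus, I. ricinus, D. variabilis or A. americanum nymphs exposed in glass vials coated with compound from acetone (900 ppm gives 5 μg/cm^2). Held 48 h at room temperature (R. sanguineus) or 21° C., 85% rel. hum.; then heated at 45-50° C. ≤5 min, motionless or uncoordinated ticks scored dead/moribund.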

[4] = test system: Rhipicephalus (Boophilus) microplus; test: In vitro injection test with Rhipicephalus (Boophilus) microplus (BOOPMI Inj); settings: 168 h, laid fertile eggs after 7 days, read-out: acaricidal activity
Summary of the method: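 Test substance in DMSO; 1 μl injected into abdomen of each of 5 engorged adult female ticks, then held at 28° C., 85% rel. hum. Activity scored after 7 days from laying of fertile eggs: 100% = no eggs or all infertile, 0% = all eggs fertile.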

Ctenocephalides felis [5] = test: Ctenocephalides felis in-vitro feeding test with fleas (CTECFE oral); settings: 48 hours, read-out: insecticidal feeding activity
Summary of the method: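 About 20 unfed adult cat fleas fed through parafilm on citrated cattle blood containing test substance (DMSO solution diluted in blood), held at about 37° C. Kill rate scored after 48 hours, 100% meaning all fleas dead.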

Spodoptera litura = test: Insecticidal testing against common cutworm; format: in vivo; settings: foliar, 144 h, concentration 100 ppm, cabbage leaf dip, second-stage larvae, after 6 days, read-out: pesticidal rate
Source text: Insecticidal Testing Against Common Cutworm (Spodoptera litura)

Plutella xylostella = test: Insecticidal testing against diamondback moth; format: in vivo; settings: foliar, 144 h, concentration 100 ppm, cabbage leaf dip, third-stage larvae, after 6 days, read-out: pesticidal rate
Source text: Insecticidal Testing Against Diamondback Moth (Plutella xylostella)

Laodelphax striatellus = test: Insecticidal testing against small brown planthopper; format: in vivo; settings: 144 h, concentration 100 ppm, sprayed rice seedlings, after 6 days, read-out: pesticidal rate
Summary of the method: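 Acetone solution of compound at a set concentration sprayed onto rice seedlings, air-dried, then exposed to 10 planthoppers (one group). Held at 25° C; survival rate recorded after 6 days.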

O=C(CNC(=O)c1ccc(C2=NOC(c3cc(Cl)cc(C(F)(F)F)c3)(C(F)(F)F)C2)c2ccccc12)NCC(F)(F)F (stereo not shown) [Afoxolaner, afoxolaner, reference compound]
Geometric mean percent reduction in live flea (Ctenocephalides felis) counts compared to untreated control rats (Ctenocephalides felis [1]; SD 2): 100%
Geometric mean percent reduction in live flea (Ctenocephalides felis) counts compared to untreated control rats (Ctenocephalides felis [1]; SD 9): 99%
Geometric mean percent reduction in live flea (Ctenocephalides felis) counts compared to untreated control rats (Ctenocephalides felis [1]; SD 16): 51%
Geometric mean percent reduction in live flea (Ctenocephalides felis) counts compared to untreated control rats (Ctenocephalides felis [1]; SD 23): 16%
Geometric mean percent reduction in live tick (Dermacentor variabilis) counts compared to untreated control rats (Dermacentor variabilis; 2 mg/kg, SD 2): 86%
Geometric mean percent reduction in live tick (Dermacentor variabilis) counts compared to untreated control rats (Dermacentor variabilis; 2 mg/kg, SD 9): 53%
Geometric mean percent reduction in live tick (Dermacentor variabilis) counts compared to untreated control rats (Dermacentor variabilis; 2 mg/kg, SD 16): 5%
Geometric mean percent reduction in live tick (Dermacentor variabilis) counts compared to untreated control rats (Dermacentor variabilis; 10 mg/kg, SD 2): 100%
Geometric mean percent reduction in live tick (Dermacentor variabilis) counts compared to untreated control rats (Dermacentor variabilis; 10 mg/kg, SD 9): 10%
Geometric mean percent reduction in live tick (Dermacentor variabilis) counts compared to untreated control rats (Dermacentor variabilis; 10 mg/kg, SD 16): 78%
Geometric mean percent reduction in live tick (Dermacentor variabilis) counts compared to untreated control rats (Dermacentor variabilis; 10 mg/kg, SD 23): 0%
Geometric mean percent reduction in live flea (Ctenocephalides felis) counts compared to untreated control rats (Ctenocephalides felis [2]; 2 mg/kg, SD 2): 69%
Geometric mean percent reduction in live flea (Ctenocephalides felis) counts compared to untreated control rats (Ctenocephalides felis [2]; 2 mg/kg, SD 9): 20%
Geometric mean percent reduction in live flea (Ctenocephalides felis) counts compared to untreated control rats (Ctenocephalides felis [2]; 2 mg/kg, SD 16): 48%
Geometric mean percent reduction in live flea (Ctenocephalides felis) counts compared to untreated control rats (Ctenocephalides felis [2]; 10 mg/kg, SD 2): 100%
Geometric mean percent reduction in live flea (Ctenocephalides felis) counts compared to untreated control rats (Ctenocephalides felis [2]; 10 mg/kg, SD 9): 97%
Geometric mean percent reduction in live flea (Ctenocephalides felis) counts compared to untreated control rats (Ctenocephalides felis [2]; 10 mg/kg, SD 16): 60%
Geometric mean percent reduction in live flea (Ctenocephalides felis) counts compared to untreated control rats (Ctenocephalides felis [2]; 10 mg/kg, SD 23): 0%

CN(C(=O)c1ccc(F)cc1)c1cccc(C(=O)Nc2c(I)cc(C(F)(C(F)(F)F)C(F)(F)F)cc2S(=O)(=O)C(F)(F)F)c1F [Compound 70, 2-fluoro-3-(4-fluoro-N-methylbenzamido)-N-(2-iodo-4-(perfluoropropan-2-yl)-6-((trifluoromethyl)sulfonyl)phenyl)benzamide]
pest or weed control at 0.2 µg/cm2, 0.2 µg/cm2 (Ctenocephalides felis [3]; dose 0.2 μg/cm^2, dead or moribund fleas after 48 h): 95%
pest or weed control at 1 µg/cm2, 1 µg/cm2 (Ctenocephalides felis [3]; dose 1 μg/cm^2, dead or moribund fleas after 48 h): 95%
pest or weed control at 0.2 µg/cm2, 0.2 µg/cm2 (Rhipicephalus sanguineus; dose 0.2 μg/cm^2, 48 h): 90%
pest or weed control at 1 µg/cm2, 1 µg/cm2 (Rhipicephalus sanguineus; dose 1 μg/cm^2, 48 h): 90%
pest or weed control at 32 ng ([4]; dose 0.032 μg/animal injected): 100%
pest or weed control at 0.00016 mg ([4]; dose 0.16 μg/animal injected): 100%
pest or weed control at 0.0008 mg ([4]; dose 0.8 μg/animal injected): 100%
pest or weed control at 0.032 ppm (Ctenocephalides felis [5]; dose 0.032 ppm in citrated cattle blood): 95%
pest or weed control at 0.16 ppm (Ctenocephalides felis [5]; dose 0.16 ppm in citrated cattle blood): 95%
pest or weed control at 0.8 ppm (Ctenocephalides felis [5]; dose 0.8 ppm in citrated cattle blood): 95%
pest or weed control at 4 ppm (Ctenocephalides felis [5]; dose 4 ppm in citrated cattle blood): 95%
inhibition in vivo at 10 mg/kg (Ctenocephalides felis [2]; 10 mg/kg, SD 2, read-out: Geometric mean percent reduction in live flea (Ctenocephalides felis) counts compared to untreated control rats): 99%
inhibition in vivo at 10 mg/kg (Ctenocephalides felis [2]; 10 mg/kg, SD 9, read-out: Geometric mean percent reduction in live flea (Ctenocephalides felis) counts compared to untreated control rats): 100%
inhibition in vivo at 10 mg/kg (Ctenocephalides felis [2]; 10 mg/kg, SD 16, read-out: Geometric mean percent reduction in live flea (Ctenocephalides felis) counts compared to untreated control rats): 99%
inhibition in vivo at 10 mg/kg (Ctenocephalides felis [2]; 10 mg/kg, SD 23, read-out: Geometric mean percent reduction in live flea (Ctenocephalides felis) counts compared to untreated control rats): 49%
inhibition in vivo at 10 mg/kg (Ctenocephalides felis [2]; 10 mg/kg, SD 30, read-out: Geometric mean percent reduction in live flea (Ctenocephalides felis) counts compared to untreated control rats): 7%
pest or weed control at 100 ppm (Spodoptera litura): ≥ 70%
pest or weed control at 100 ppm (Plutella xylostella): ≥ 70%
pest or weed control at 100 ppm (Laodelphax striatellus): ≥ 70%

Reference: patent US11696913B2, “Prolonged ectoparasite-controlling agent for animal” (MITSUI CHEMICALS AGRO, INC., priority 2017, dated 2023)
